Results from patent US3959290A, “3,14-Substituted-8-oxamorphinans” (Bristol-Myers Company, priority 1974, dated 1976).
Structures can show the parent of a compound that is named as a salt. Where two headings read alike, the source gives them in different places.

How the values were obtained:
[1] = system: phenylquinone induced writhings; test: Phenylquinone writhing (50 per cent reduction in number of phenylquinone induced writhings), mouse; type: in vivo; conditions: for ED50 / ED50 Agonist Activity, Phenylquinone Writhing, Mouse, SC: weights in terms of the free base
Experimental: (§1) In vivo testing was conducted on the compounds designated herein as XVc (racemic mixture), d-XVc (dextrorotatory isomer), l-XVc (levorotatory isomer) and dl-XVd (see examples for structures) to determine their agonist and/or antagonist properties. The figures reported are the number of milligrams/kilogram of body weight of compound that produced an agonist or antagonist effect in 50% of the mice and rats so tested (ED50).
(§2) All the compounds were tested as the tartrates, but the weights reported in mg./kg. are corrected and reported in terms of the free base.
(§3) ^1 A 50 per cent reduction in number of phenylquinone induced writhings (Siegmund, E. A. et al., Proc. Soc. Biol. & Med. 95, 729; 1957).

[2] = system: phenylquinone induced writhings; test: Phenylquinone writhing (50 per cent reduction in number of phenylquinone induced writhings), rat; type: in vivo; conditions: weights in terms of the free base; for ED50: Rattus norvegicus
Experimental: as §1, §2, §3

[3] = system: Straub Tail induced by oxymorphone; test: Antagonism of Straub Tail induced by oxymorphone in 50 per cent of mice; type: in vivo; conditions: oxymorphone 2 mg./kg. sc., weights in terms of the free base; for ED50: Mus musculus
Experimental: as §1, §2
^2 Antagonism of Straub Tail induced by oxymorphone (2 mg./kg. sc.) in 50 per cent of mice.

[4] = system: righting reflex loss induced by oxymorphone; test: animal or person; type: in vivo; conditions: Rattus norvegicus, rats, oxymorphone 1.5 mg./kg. sc., weights in terms of the free base
Experimental: as §1, §2
^3 Antagonism of righting reflex loss induced by oxymorphone (1.5 mg./kg. sc.) in 50 per cent of rats.

[5] = system: analgesic effect induced by morphine; test: animal or person; type: in vivo; conditions: morphine 15 mg./kg. sc., weights in terms of the free base; for ED50: Rattus norvegicus
Experimental: as §1, §2

[6] = In vivo testing for agonist and/or antagonist properties (overall conclusion from Table I); parameters: species or system mice and rats; conditions: parenteral and oral administration
Experimental: as §1

[7] = Mus musculus, sc, read-out: ED50 Agonist Activity, Phenylquinone Writhing, Mouse, SC
[8] = po, read-out: ED50 Agonist Activity, Phenylquinone Writhing, Rat, PO
[9] = sc, read-out: ED50 Agonist Activity, Phenylquinone Writhing, Rat, SC
[10] = sc, read-out: ED50 Antagonist Activity, Oxymorphone Straub Tail, SC
[11] = SC, read-out: ED50 Antagonist Activity, Oxymorphone Narcosis, SC
[12] = po, read-out: ED50 Antagonist Activity, Morphine Antagonism Rat Tail Flick, PO
[13] = sc, read-out: ED50 Antagonist Activity, Morphine Antagonism Rat Tail Flick, SC

**Q.** For `C[C@@]12OCCC[C@@]13CCN(CC1CC1)[C@@H]2Cc1ccc(O)cc13` (racemic) [XVc tartrate, N-Cyclopropylmethyl-3-hydroxy-14β-methyl-8-oxamorphinan], which ED50 [1, 7] is on record?
**A.** Its ED50 is 0.19 mg/kg.

**Q.** What about the ED50 [2, 8] of the same compound?
**A.** Its ED50 is 4 mg/kg.

**Q.** What about the ED50 [2, 9] of the same compound?
**A.** The ED50 was 0.03 mg/kg.

**Q.** What about the ED50 [3, 10] of the same compound?
**A.** The ED50 was 0.61 mg/kg.

**Q.** What about the ED50 [4, 11] of the same compound?
**A.** The ED50 was 0.36 mg/kg.

**Q.** What about the ED50 [5, 12] of the same compound?
**A.** Its ED50 is 7.3 mg/kg.

**Q.** And the ED50 [5, 13]?
**A.** Its ED50 is 0.05 mg/kg.

**Q.** Which “dose response, Phenylquinone Writhing, Mouse, SC” value ([1]; SC, remark under the ED50) does the source give for `C=CCN1CC[C@]23CCCC[C@H]2[C@H]1Cc1ccc(O)cc13` [Levallorphan, reference compound] here?
**A.** Its value is “poor dose”.

**Q.** What about the ED50 ([1]; SC, read-out: ED50 Agonist Activity, Phenylquinone Writhing, Mouse, SC) of the same compound?
**A.** Its ED50 is 26.3 mg/kg.

**Q.** Which ED50 [3, 10] does the source give for `C=CCN1CC[C@]23c4c5ccc(O)c4O[C@H]2[C@@H](O)C=C[C@H]3[C@H]1C5` [Nalorphine, reference compound] here?
**A.** The ED50 was 1.14 mg/kg.

**Q.** Which ED50 [4, 11] does the source give for `CC(C)=CCN1CCC2(C)c3cc(O)ccc3CC1C2C` (stereo not shown) [Pentazocine, reference compound] here?
**A.** The ED50 was 10 mg/kg.

**Q.** And the ED50 [5, 13]?
**A.** The ED50 was 12.2 mg/kg.

**Q.** With `C[C@@]12OCCC[C@@]13CCN(CC1CC1)[C@@H]2Cc1ccc(O)cc13` [d-XVc tartrate, N-Cyclopropylmethyl-3-hydroxy-14β-methyl-8-oxamorphinan] as the compound, how does the “ED50 Agonist Activity, Phenylquinone Writhing, Mouse, SC” value ([1]; SC) read?
**A.** Its value is > 40 mg/kg.

**Q.** What about the “ED50 Antagonist Activity, Oxymorphone Straub Tail, SC” value [3] of the same compound?
**A.** Its value is > 10 mg/kg.

**Q.** And the “ED50 Antagonist Activity, Morphine Antagonism Rat Tail Flick, SC” value [5]?
**A.** The value was > 20 mg/kg.

**Q.** Which results are given for `C[C@@]12OCCC[C@@]13CCN(CC1CC1)[C@@H]2Cc1ccc(O)cc13` [l-XVc tartrate, N-Cyclopropylmethyl-3-hydroxy-14β-methyl-8-oxamorphinan]?
**A.** ED50 ([1]; Mus musculus, po, read-out: ED50 Agonist Activity, Phenylquinone Writhing, Mouse, PO): 2.7 mg/kg; ED50 Agonist Activity, Phenylquinone Writhing, Mouse, SC ([1]; SC): 0.11 mg/kg; ED50 [2, 8]: 1.3 mg/kg; ED50 Agonist Activity, Phenylquinone Writhing, Rat, SC ([2]; SC): 0.02 mg/kg; ED50 ([3]; po, read-out: ED50 Antagonist Activity, Oxymorphone Straub Tail, PO): 14.6 mg/kg; ED50 Antagonist Activity, Oxymorphone Straub Tail, SC [3]: ≈ 0.2 mg./kg.; ED50 ([4]; PO, read-out: ED50 Antagonist Activity, Oxymorphone Narcosis, PO): 1.25 mg/kg; ED50 [4, 11]: 0.014 mg/kg; ED50 [5, 12]: 6.3 mg/kg; ED50 Antagonist Activity, Morphine Antagonism Rat Tail Flick, SC [5]: 0.021 mg/kg; agonist and antagonist activity [6]: potent agonist and antagonist activity

**Q.** Which ED50 [1, 7] does the source give for `Cl.Oc1ccc2c(c1)[C@@]13CCCO[C@H]1[C@H](C2)N(CC1CC1)CC3` [l-XVk hydrochloride, l-N-cyclopropylmethyl-3-hydroxy-8-oxamorphinan hydrochloride] here?
**A.** Its ED50 is 0.013 mg/kg.

**Q.** And the ED50 [2, 9]?
**A.** Its ED50 is 0.009 mg/kg.

**Q.** What about the ED50 [3, 10] of the same compound?
**A.** Its ED50 is 0.2 mg/kg.

**Q.** And the ED50 [4, 11]?
**A.** The ED50 was 0.03 mg/kg.

**Q.** What about the ED50 [5, 13] of the same compound?
**A.** Its ED50 is 0.97 mg/kg.
